From DBAASP
In brackets after ≈: the same amount, converted by molar mass.

Tests used:
Experiment in all cases: ≥ marks a high value that may be exact or a test limit, other limits are often not marked, values filed in µg/mL are converted to µM
[1] = test system: Salmonella enterica subsp. enterica serovar Choleraesuis ATCC 10708
[2] = test system: Enterococcus faecium CCT 5079
[3] = test system: Bacillus thuringiensis ATCC 10792
[4] = test system: Streptococcus mutans AU159
[5] = test system: Staphylococcus aureus CCT 2580
[6] = test system: Escherichia coli ATCC 11775
[7] = test system: Streptococcus pneumoniae ATCC 11733
[8] = test system: Enterococcus hirae ATCC 10541
[9] = test system: Staphylococcus aureus CCT 6538
[10] = test system: Escherichia coli CCT 1457
[11] = test system: Pseudomonas aeruginosa ATCC 15422
[12] = test system: Staphylococcus aureus ATCC 25923
[13] = test system: Bacillus cereus ATCC 11778
[14] = test system: Escherichia coli ATCC 25922
[15] = test system: Staphylococcus epidermidis ATCC 12228
[16] = test system: Salmonella enterica subsp. enterica serovar Typhimurium ATCC 14028
[17] = test system: Pseudomonas aeruginosa ATCC 13388
[18] = test system: Micrococcus luteus ATCC 4698
[19] = test system: Legionella pneumophila Lens
[20] = test system: Candida albicans ATCC 90028

## CC[C@H](C)[C@H](N)C(=O)N[C@@H](CC(N)=O)C(=O)N[C@@H](Cc1c[nH]c2ccccc12)C(=O)N[C@@H](CC(C)C)C(=O)N[C@@H](C)C(=O)N[C@H](C(=O)N[C@@H](C)C(=O)N[C@@H](C)C(=O)N[C@@H](C)C(=O)N[C@H](C(=O)N[C@@H](C)C(=O)NCC(=O)N[C@@H](CCSC)C(=O)N[C@@H](CC(C)C)C(N)=O)C(C)C)[C@@H](C)CC [INWLAIAAAVAGML]
[1]
  MIC: ≥ 354 µM
[2]
  MIC: ≥ 354 µM
[3]
  MIC: ≥ 354 µM
[4]
  MIC: ≥ 354 µM
[5]
  MIC: ≥ 354 µM
[6]
  MIC: ≥ 354 µM
[7]
  MIC: ≥ 354 µM
[8]
  MIC: ≥ 354 µM
[9]
  MIC: ≥ 354 µM
[10]
  MIC: ≥ 354 µM
[11]
  MIC: ≥ 354 µM
[12]
  MIC: > 354 µM
[13]
  MIC: ≥ 354 µM
[14]
  MIC: > 354 µM
[15]
  MIC: > 354 µM
[16]
  MIC: > 354 µM
[17]
  MIC: ≥ 354 µM
[18]
  MIC: ≥ 354 µM

## CC[C@H](C)[C@H](NC(=O)[C@H](Cc1ccccc1)NC(=O)CNC(=O)[C@H](CC(N)=O)NC(=O)[C@@H](N)CCSC)C(=O)N[C@@H](CC(C)C)C(=O)NCC(=O)N[C@@H](CCCCN)C(=O)N[C@@H](Cc1ccccc1)C(=O)N[C@@H](Cc1ccccc1)C(=O)N[C@@H](CC(=O)O)C(=O)N[C@H](C(=O)N[C@@H](C)C(=O)N[C@@H](CCCCN)C(=O)N[C@@H](CCCCN)C(=O)N[C@H](C(=O)N[C@@H](CC(C)C)C(=O)N[C@@H](CC(=O)O)C(=O)N[C@H](C(=O)N[C@H](C(=O)N[C@@H](Cc1ccccc1)C(=O)N[C@@H](CCC(N)=O)C(=O)N[C@@H](CCCCN)C(=O)O)[C@@H](C)CC)[C@@H](C)O)[C@@H](C)CC)C(C)C [MNGFILGKFFDVAKKILDTIFQK]
[19]
  MIC: 1.22 µM (≈ 3.26 µg/mL)

## CC[C@H](C)[C@H](NC(=O)[C@H](CC(C)C)NC(=O)[C@H](CC(=O)O)NC(=O)[C@@H](NC(=O)[C@@H](NC(=O)[C@H](Cc1ccccc1)NC(=O)[C@H](CCC(N)=O)NC(=O)[C@@H](N)CCSC)[C@@H](C)CC)[C@@H](C)O)C(=O)N[C@@H](CCCCN)C(=O)N[C@@H](CCCCN)C(=O)N[C@@H](C)C(=O)N[C@H](C(=O)N[C@@H](CC(=O)O)C(=O)N[C@@H](Cc1ccccc1)C(=O)N[C@@H](Cc1ccccc1)C(=O)N[C@@H](CCCCN)C(=O)NCC(=O)N[C@@H](CC(C)C)C(=O)N[C@H](C(=O)NCC(=O)N[C@@H](CC(N)=O)C(=O)N[C@@H](CCCCN)C(=O)O)C(C)C)C(C)C [MQFITDLIKKAVDFFKGLVGNK]
[19]
  MIC: 2.08 µM (≈ 5.23 µg/mL)

## CC[C@H](C)[C@H](N)C(=O)N[C@@H](CC(N)=O)C(=O)N[C@@H](Cc1c[nH]c2ccccc12)C(=O)N[C@@H](CCCCN)C(=O)N[C@@H](CCCCN)C(=O)N[C@H](C(=O)N[C@@H](C)C(=O)N[C@@H](CCCCN)C(=O)N[C@@H](CCCCN)C(=O)N[C@H](C(=O)N[C@@H](C)C(=O)NCC(=O)N[C@@H](CCSC)C(=O)N[C@@H](CC(C)C)C(N)=O)C(C)C)[C@@H](C)CC [INWKKIAKKVAGML]
[20]
  MIC: 9.76 µM (≈ 15.6 µg/mL)
[1]
  MIC: 5 µM (≈ 8 µg/mL)
[2]
  MIC: 0.625 µM (≈ 0.999 µg/mL)
[3]
  MIC: 19.4 µM (≈ 31 µg/mL)
[4]
  MIC: 1.25 µM (≈ 2 µg/mL)
[5]
  MIC: 1.25 µM (≈ 2 µg/mL)
[6]
  MIC: 2.5 µM (≈ 4 µg/mL)
[7]
  MIC: 0.625 µM (≈ 0.999 µg/mL)
[8]
  MIC: 5 µM (≈ 8 µg/mL)
[9]
  MIC: 0.625 µM (≈ 0.999 µg/mL)
[10]
  MIC: 0.625 µM (≈ 0.999 µg/mL)
[11]
  MIC: 5 µM (≈ 8 µg/mL)
[12]
  MIC: 1.25 µM (≈ 2 µg/mL)
[13]
  MIC: 10 µM (≈ 16 µg/mL)
[14]
  MIC: 2.5 µM (≈ 4 µg/mL)
[15]
  MIC: 0.625 µM (≈ 0.999 µg/mL)
[16]
  MIC: 1.25 µM (≈ 2 µg/mL)
[17]
  MIC: 10 µM (≈ 16 µg/mL)
[18]
  MIC: 0.625 µM (≈ 0.999 µg/mL)
